According to US20130143304A9, “LIGF-TYPE SYSTEMS FOR BIOCONVERSION OF LIGNIN-DERIVED COMPOUNDS” (priority 2010, published 2013):

Tests used:
[1] = tested on: yeast Saccharomyces cerevisiae; settings: each compound alone; cited from earlier work
Escherichia coli = settings: each compound alone, cited from earlier work; for antimicrobial activity against Escherichia coli: known; for antibacterial activity against Escherichia coli: benzaldehyde derivatives
[2] = in vitro biochemical assay for beta-etherase activity on fluorescent substrate MUAV (clarified E. coli cell extracts, 4MU fluorescence)
Procedure: This example describes a method for gene expression in E. coli, as well as beta-etherase biochemical assays. Expression of known and putative beta-etherase genes was performed using 5 ml cultures of the recombinant E. coli strains described herein in Luria Broth medium by induction of gene expression using isopropylthiogalactoside (IPTG) to a final concentration of 0.1 mM. Following induction, and cell harvest, the cells were disrupted using either sonication or the BPER (Invitrogen) cell lysis system.
In vitro reactions were performed in a total volume of 200 ul and contained: 25 mM TrisHCl pH 7.5; 0.5 mM dithiothreitol; 1 mM glutathione; 0.05 mM or 0.1 mM MUAV; 10 ul of clarified cell extract used to initiate the reactions. Following incubation for 2.5 hours at room temperature, a 50 ul sample of the reactions was terminated using 150 uL of 300 mM glycine/NaOH buffer pH 9. The formation of 4 methylumbelliferone (4MU) upon hydrolysis of the aryl ether bond was monitored by the increase in fluorescence at λex=360 nm and λem=450 nm using a Spectramax UV/visible/fluorescent spectrophotometer.
The total protein concentrations of the cell lysates were determined using the BCA reagent system for protein quantification (Pierce). […]

[3] = reactions containing 0.1 mM MUAV substrate, E. coli cell extracts expressing the protein

Question: For `O=C(O)/C=C/c1ccc(O)cc1` [p-coumaric acid], which “antifungal activity against the yeast Saccharomyces cerevisiae” value (shortened to “antifungal activity”) [1] is on record?
Answer: Its value is “significant antifungal activities”.

Question: For `COc1cc(C=O)cc(OC)c1O` [syringaldehyde], which “antimicrobial activity against Escherichia coli” value (Escherichia coli) is on record?
Answer: The value was “antimicrobial activity”.

Question: With `COc1ccc(O)c(C=O)c1` [2-hydroxy-5-methoxybenzaldehyde] as the molecule, how does the “antibacterial activity against Escherichia coli” value (Escherichia coli) read?
Answer: The value was “antibacterial activity”.

Question: With `O=C(O)/C=C/c1ccccc1O` [o-coumaric acid] as the molecule, how does the “antifungal activity” value [1] read?
Answer: The value was “significant antifungal activities”.

Question: Which “antimicrobial activity against Escherichia coli” value (Escherichia coli) does the source give for `COc1cc(C=O)ccc1O` [vanillin] here?
Answer: The value was “antimicrobial activity”.

Question: With `COc1ccc(C=O)cc1OC` [Veratraldehyde] as the molecule, how does the “antifungal activity” value [1] read?
Answer: The value was “significant antifungal activities”.

Question: For `O=Cc1ccc(O)c(O)c1O` [2,3,4-trihydroxybenzaldehyde], which “antibacterial activity against Escherichia coli” value (Escherichia coli) is on record?
Answer: Its value is “antibacterial activity”.

Question: For `O=Cc1cccc(O)c1O` [2,3-dihydroxybenzaldehyde], which “antibacterial activity against Escherichia coli” value (Escherichia coli) is on record?
Answer: The value was “antibacterial activity”.

Question: Which “antifungal activity” value [1] does the source give for `COc1cc(CCC(C)=O)ccc1O` [vanillylacetone] here?
Answer: Its value is “significant antifungal activities”.

Question: For `O=Cc1ccco1` [furfural], which “antimicrobial activity against Escherichia coli” value (Escherichia coli) is on record?
Answer: The value was “antimicrobial activity”.

Question: With `COc1cc(C(=O)O)ccc1O` [vanillic acid] as the molecule, how does the “antifungal activity” value [1] read?
Answer: Its value is “significant antifungal activities”.

Question: With `O=Cc1ccc(O)cc1` [4-hydroxybenzaldehyde] as the molecule, how does the “antimicrobial activity against Escherichia coli” value (Escherichia coli) read?
Answer: Its value is “antimicrobial activity”.

Question: For `O=C(O)/C=C/c1cccc(O)c1` [m-coumaric acid], which “antifungal activity” value [1] is on record?
Answer: The value was “significant antifungal activities”.

Question: For `O=Cc1cc(O)ccc1O` [2,5-dihydroxybenzaldehyde], which “antibacterial activity against Escherichia coli” value (Escherichia coli) is on record?
Answer: The value was “antibacterial activity”.

Question: For `O=Cc1ccccc1O` [2-hydroxybenzaldehyde], which “antibacterial activity against Escherichia coli” value (Escherichia coli) is on record?
Answer: The value was “antibacterial activity”.

Question: With `O=Cc1ccc(O)cc1O` [2,4-dihydroxybenzaldehyde] as the molecule, how does the “antibacterial activity against Escherichia coli” value (Escherichia coli) read?
Answer: The value was “antibacterial activity”.

Question: With `O=C(O)C=Cc1ccccc1` [cinnamic acid] as the molecule, how does the “antifungal activity” value [1] read?
Answer: Its value is “significant antifungal activities”.

Question: With `O=Cc1ccc(CO)o1` [5-hydroxymethylfurfural] as the molecule, how does the “antimicrobial activity against Escherichia coli” value (Escherichia coli) read?
Answer: The value was “antimicrobial activity”.

Question: For `O=Cc1c(O)cc(O)cc1O` [2,4,6-trihydroxybenzaldehyde], which “antibacterial activity against Escherichia coli” value (Escherichia coli) is on record?
Answer: The value was “antibacterial activity”.

Question: With `COc1cc(O)cc(OC)c1C=O` [4-hydroxy-2,6-dimethoxybenzaldehyde] as the molecule, how does the “antibacterial activity against Escherichia coli” value (Escherichia coli) read?
Answer: Its value is “antibacterial activity”.

Question: For `COc1cccc(C=O)c1O` [2-hydroxy-3-methoxybenzaldehyde], which “antibacterial activity against Escherichia coli” value (Escherichia coli) is on record?
Answer: The value was “antibacterial activity”.

B1: ligE: S. paucimobilis ligE beta-etherase, positive control polypeptide (protein)
chain: MARNNTITLYDLQLESGCTISPYVWRTKYALKHKGFDIDIVPGGFTGILERTGGRSERVPVIVDDGEWVLDSWVIAEYLDEKYPDRPMLFEGPTQKNLMKFLDNWLWSTAVGPWFRCYILDYHDLSLPQDRDYVRWSREQWFLGGQRLEDVQAGREDRLPLVPPTLEPFRRILAETKWLGGDQPNFADYSALAVFLWTASVARTPPLTEDDPLRDWLDRGFDLFDGLGRHPGMNPLFGLKLREGDPEPFVRQTGPAGAGGQALNKGPQTTKMPPRVAEKAD
Question: With B1 as the molecule, how does the “total activity (beta-etherase)” value [2, 3] read?
Answer: Its value is 7 rfu/ug.

B2: LigF2: N. aromaticivorans beta-etherase, glutathione S-transferase-like polypeptide, recombinantly expressed in E. coli (protein)
chain: MALKYYHAEPLANSLKSMVPLKEKGLAYESIYVDLHKFEQHQPWFTAINPEGQVPVLDHDGTIITHTTVINEYLEDAFPDAQPADAPLRPRDPVGAARMRYWNKFIDEHVMNYVSMHGWHRMVGVIARNIASGDFEKLLESIPLPDQRKKWATARSGFSEADLANATAKIEYALDKVEKQLGETKWLAGDTYTLADINFYSHCGAMVERMFPEMEVARRAPRLCEWRDRVAARPAVAEALKSEDRTAPGLRVWSGEVR
Question: For B2, which “total activity (beta-etherase)” value ([2]; MUAV substrate, concentration not given) is on record?
Answer: Its value is 1206 rfu/ug.

B3: ligE1: N. aromaticivorans beta-etherase, glutathione S-transferase-like polypeptide, recombinantly expressed in E. coli (protein)
chain: MAANNTITFYDLALSTGATISPFVWATKYALKHKGFDLDVVPGGFTGILERTGGKTERLPAIVDDGEFVLDSWGIVEYLDAKYPDRPVLIPHESVAATLKALDNWFWNAAVGPWMFCFCQDYRDLSLPQDHEYVTHSREKMLGRKLEEVQAGREERLPKISAALEPLRAALAQHQWLGGSSPNYADYRIMGGILFTASVCKTPVLANDDPLRDWIERCLDLYGGLGRHPGLFPLFGLEQREGDPDLFNRAAGQGGIYKRNTGPESTRAETQRITEGMKK
Question: For B3, which “fold more efficient than S. paucimobilis ligE beta-etherase” value ([2]; MUAV substrate) is on record?
Answer: Its value is “approximately 75 fold”.

Question: And the “total activity (beta-etherase)” value [2, 3]?
Answer: Its value is 529 rfu/ug.
